What all share (assay type): biochemical
For assay [1], the target named is T1, human 11β-HSD2 (Homo sapiens, UniProt P80365).
T1 construct: The obtained PCR products of about 0.9 kbp, 1.2 kbp, and 0.9 kbp were subcloned into an expression vector pcDNA3.1+/Zeo; expressed in transfected cells
T1 sequence (P80365 1-405): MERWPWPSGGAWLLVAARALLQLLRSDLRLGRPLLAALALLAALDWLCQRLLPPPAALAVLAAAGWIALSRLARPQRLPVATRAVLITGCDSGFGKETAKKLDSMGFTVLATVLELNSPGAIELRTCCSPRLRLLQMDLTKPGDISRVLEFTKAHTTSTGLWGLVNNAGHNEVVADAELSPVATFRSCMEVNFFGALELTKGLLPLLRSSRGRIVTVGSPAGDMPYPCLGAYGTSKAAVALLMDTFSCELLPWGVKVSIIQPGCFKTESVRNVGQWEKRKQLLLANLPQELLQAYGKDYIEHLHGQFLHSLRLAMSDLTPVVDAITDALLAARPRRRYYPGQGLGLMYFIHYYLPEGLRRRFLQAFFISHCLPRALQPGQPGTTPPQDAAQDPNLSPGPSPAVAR
Briefly: Enzyme inhibitory activity, human 11β-HSD2 (lysate of stably expressing HEK293 cells, cortisol by competitive ELISA). As to conditions: Table 1; human 11β-HSD2, cell lysate, 37° C. for 1 hour; read-out: h HSD2 in vitro assay (IC50 uM). The method, then: 1. Human 11β-HSD1-, Human 11β-HSD2- and Mouse 11β-HSD1-Gene Clonings and Establishment of Stably Expressing Cells
Human 11β-HSD1-, human 11β-HSD2-, and mouse 11β-HSD1-gene clonings were conducted using as a template a reverse transcription product of human-liver RNA, human-kidney RNA (CELL APPLICATIONS), and mouse-kidney RNA respectively, by means of PCR cloning with reference to nucleotide sequences of Genbank Accession Nos. NM_005525, NM_000196, and NM_008288. The obtained PCR products of about 0.9 kbp, 1.2 kbp, and 0.9 kbp were subcloned into an expression vector pcDNA3.1+/Zeo (Invitrogen).
Human 11β-HSD1- and human 11β-HSD2-expressing vectors were transfected into human kidney-derived cell line, HEK293 cells, using a transfection reagent, jet PEI (Funakoshi). Mouse 11β-HSD1 was transfected to Chinese hamster ovary-derived cell line, CHO-K1 cells. Selection was conducted with 200-400 μg/mL of zeocine (Invitrogen) to provide stably expressing-cell clones. The stably expressing cells were suspended in buffer solution A (20 mmol/L Tris-HCl, pH 7.4, 250 mmol/L sucrose, 1 mmol/L EGTA, 1 mmol/L EDTA, 1 mmol/L MgCl2), sonicated, and then stored at −80° C.
2. Assay of Enzyme Inhibitory Activity
An enzymatic reaction was conducted using a polystyrene 96-well plate. Each well was added with 1 μL of a test agent dissolved in DMSO and then diluted (0.003 to 3 mmol/L), and further added with 10 μL of cell lysate diluted to a concentration of 0.1 mg/mL to 0.4 mg/mL. Next, 90 μL of buffer solution A containing substrate (100 nmol/L cortisone or cortisol) and coenzyme (400 μmol/L NADPH or NAD+) was added and the mixture was incubated at 37° C. for 1 hour. The enzymatic reaction was stopped by treating at 95° C. for 3 minutes. Cortisol that was present in the reaction solution was determined by a competitive ELISA shown below.
Anti-rabbit IgG antibody (Chemi-con) diluted to 2 μg/mL with carbonate buffer solution (pH 9.6) was added in 100 μL each to a 96-well immuno plate (Nunc) and immobilized by an incubation at 4° C. overnight. 50 μL of enzymatic reaction solution was put onto the plates, and further, anti-cortisol antibody (Cosmo Bio) and HRP-labeled cortisol (Cosmo Bio), diluted with buffer solution B (25 mmol/L Tris-HCl pH 7.4, 137 mmol/L NaCl, 2.68 mmol/L KCl), were added in 50 μL respectively and incubated at 4° C. overnight. After washed three times with buffer solution B containing 0.05% Tween 20, the plates were allowed to develop color by adding 100 μL of color reagent, TMB (Moss). The color reaction was stopped by 25 μL of 1 mol/L sulfuric acid and the absorbance was determined at 450 nm with a microplate reader (Molecular Device, VersaMax).
The values of human 11β-HSD1, human 11β-HSD2, and mouse 11β-HSD1 activities were subtracted from 100, and the resultant values were regarded as the respective 11β-HSD inhibition rates of example compounds. […] The comparison of human 11β-HSD1 and human 11β-HSD2 inhibiting activities is shown in Table 1, and the comparison of human 11β-HSD1 and mouse 11β-HSD1 inhibiting activities is shown in Table 2.

Assay [2] concerns the target T2, human 11β-HSD1 (Homo sapiens, UniProt P28845).
T2 construct: The obtained PCR products of about 0.9 kbp, 1.2 kbp, and 0.9 kbp were subcloned into an expression vector pcDNA3.1+/Zeo; expressed in transfected cells
Kind of assay: Enzyme inhibitory activity, human 11β-HSD1 (lysate of stably expressing HEK293 cells, cortisol by competitive ELISA). As to conditions: human 11β-HSD1, cell lysate, 37° C. for 1 hour, read-out: h HSD1 in vitro assay (IC50 uM). Summed up:
(§1)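 Sonicated lysates of stably transfected cells (diluted to 0.1–0.4 mg/mL before addition) reacted for 1 h at 37 °C in pH 7.4 Tris/sucrose/EGTA/EDTA/MgCl2 buffer with 100 nmol/L cortisone or cortisol and 400 μmol/L NADPH or NAD+, then were heat-stopped at 95 °C. Inhibition rate = 100 minus residual activity.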

The target in assay [3] is T3, mouse 11β-HSD1 (Mus musculus, UniProt P50172).
T3 construct: The obtained PCR products of about 0.9 kbp, 1.2 kbp, and 0.9 kbp were subcloned into an expression vector pcDNA3.1+/Zeo; expressed in transfected cells
T3 sequence (P50172 whole entry): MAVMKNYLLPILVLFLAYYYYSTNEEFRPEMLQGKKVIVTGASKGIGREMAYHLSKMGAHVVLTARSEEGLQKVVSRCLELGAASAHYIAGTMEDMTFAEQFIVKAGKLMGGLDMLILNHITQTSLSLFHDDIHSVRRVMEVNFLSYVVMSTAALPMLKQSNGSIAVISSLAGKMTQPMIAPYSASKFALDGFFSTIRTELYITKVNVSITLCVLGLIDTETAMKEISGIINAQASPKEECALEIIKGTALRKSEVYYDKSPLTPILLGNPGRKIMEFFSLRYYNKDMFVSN
Kind of assay: Enzyme inhibitory activity, mouse 11β-HSD1 (lysate of stably expressing CHO-K1 cells, cortisol by competitive ELISA). The settings on record: Table 2; mouse 11β-HSD1, cell lysate, 37° C. for 1 hour; read-out: m HSD1 in vitro assay (IC50 uM). Summed up:
as §1

Read-outs that look alike come from different tables or passages of the source. Some results are limits rather than exact numbers.

T2 sequence (P28845 whole entry): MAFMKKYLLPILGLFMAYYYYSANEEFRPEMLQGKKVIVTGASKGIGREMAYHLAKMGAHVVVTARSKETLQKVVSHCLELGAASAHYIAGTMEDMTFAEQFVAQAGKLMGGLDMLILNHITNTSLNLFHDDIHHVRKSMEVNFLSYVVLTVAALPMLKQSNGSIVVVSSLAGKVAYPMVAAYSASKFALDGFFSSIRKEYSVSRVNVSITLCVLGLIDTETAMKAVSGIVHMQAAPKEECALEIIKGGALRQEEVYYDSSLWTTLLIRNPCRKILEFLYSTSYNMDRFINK

Consider `CC1(C)C(=O)N(C2CCCCCCC2)N1c1cccc(Cl)c1Cl` [Example 221, 2-cyclooctyl-1-(2,3-dichlorophenyl)-4,4-dimethyl-1,2-diazetidin-3-one], for which the IC50 was 3 to 30 µM in assay [1], 0.023 µM in assay [2] (Table 1) and 0.29 µM in assay [3].
As for `CC1(C)C(=O)N(C2C3CC4CC(C3)CC2C4)N1c1ccc(O)cc1` (stereo not shown) [Example 215, 4,4-dimethyl-1-(4-hydroxyphenyl)-2-(adamantan-2-yl)-1,2-diazetidin-3-one], the IC50 in assay [1] stood at 4.5 µM; in assay [2] (Table 1), 0.023 µM; in assay [3] it was 0.54 µM.
For `Cc1ccc(C)c(C(=O)N2N(C3C4CC5CC(C4)CC3C5)C(=O)C2(C)C)c1` (stereo not shown) [Example 161, 1-[(2,5-dimethylphenyl)carbonyl]-4,4-dimethyl-2-(adamantan-2-yl)-1,2-diazetidin-3-one], in that order: above 30 µM, 0.5 µM and 0.23 µM.
For the compound `CC1(C)C(=O)N([C@H]2C3CC4CC2C[C@](Cl)(C4)C3)N1c1ccccc1O` [Example 253, trans-2-(5-chloroadamantan-2-yl)-1-(2-hydroxyphenyl)-4,4-dimethyl-1,2-diazetidin-3-one], the IC50 was 3 to 30 µM in assay [1], 0.013 µM in assay [2] (Table 1) and 0.15 µM in assay [3].
Consider `CC1(C)C(=O)N(C2C3CC4CC(C3)CC2C4)N1c1cccc(Cl)c1` (stereo not shown) [Example 190, 1-(3-chlorophenyl)-4,4-dimethyl-2-(adamantan-2-yl)-1,2-diazetidin-3-one], for which the values for the IC50 in assay [1] and in assay [2] (Table 1) were 3 to 30 µM and 0.093 µM, respectively.
Consider `CC1(C)C(=O)N(C2C3CC4CC(C3)CC2C4)N1c1ccccc1Cl` (stereo not shown) [Example 189, 1-(2-chlorophenyl)-4,4-dimethyl-2-(adamantan-2-yl)-1,2-diazetidin-3-one], for which the figures for the IC50 in assay [1] and in assay [2] (Table 1) were 3 to 30 µM and 0.022 µM, respectively.
In the case of `CC1(C)C(=O)N(C2C3CC4CC(C3)CC2C4)N1c1ccc(Cl)cc1Cl` (stereo not shown) [Example 208, 1-(2,4-dichlorophenyl)-4,4-dimethyl-2-(adamantan-2-yl)-1,2-diazetidin-3-one], the IC50 in assay [1] was 3 to 30 µM; in assay [2] (Table 1), 0.02 µM.
For `CC1(C)C(=O)N(C2C3CC4CC(C3)CC2C4)N1/C=C/c1ccccc1` (stereo not shown) [Example 265, 4,4-dimethyl-1-[(E)-2-phenylethenyl]-2-(adamantan-2-yl)-1,2-diazetidin-3-one], in that order: 19 µM and 0.036 µM.
For `CC1(C)C(=O)N([C@H]2C3CC4CC2C[C@](O)(C4)C3)N1c1cccc(Cl)c1Cl` [Example 231, trans-1-(2,3-dichlorophenyl)-2-(5-hydroxyadamantan-2-yl)-4,4-dimethyl-1,2-diazetidin-3-one] the same measures were above 30 µM and 0.088 µM.
As to `CC1(C)C(=O)N(C2C3CC4CC(C3)CC2C4)N1c1ccccc1` (stereo not shown) [Example 181, 4,4-dimethyl-1-phenyl-2-(adamantan-2-yl)-1,2-diazetidin-3-one], the IC50 in assay [1] is 3 to 30 µM; in assay [2] (Table 1), 0.062 µM.
For the compound `CC1(C)C(=O)N(C2C3CC4CC(C3)CC2C4)N1C(=O)c1ccccc1F` (stereo not shown) [Example 119, 1-[(2-fluorophenyl)carbonyl]-4,4-dimethyl-2-(adamantan-2-yl)-1,2-diazetidin-3-one], the values for the IC50 in assay [1] and in assay [2] (Table 1) were above 30 µM and 0.72 µM, respectively.
As for `COc1ccc(N2N(C3C4CC5CC(C4)CC3C5)C(=O)C2(C)C)cc1` (stereo not shown) [Example 203, 1-(4-methoxyphenyl)-4,4-dimethyl-2-(adamantan-2-yl)-1,2-diazetidin-3-one], the half-maximal inhibitory concentration (IC50) in assay [1] was above 30 µM; in assay [2] (Table 1), 0.026 µM.
Take `CC1(C)C(=O)N(C2C3CC4CC(C3)CC2C4)N1C(=O)c1ccccc1Br` (stereo not shown) [Example 120, 1-[(2-bromophenyl)carbonyl]-4,4-dimethyl-2-(adamantan-2-yl)-1,2-diazetidin-3-one]: the results for the half-inhibitory concentration (IC50) in assay [1] and in assay [2] (Table 1) were above 30 µM and 0.27 µM, respectively.
As for `CC1(C)C(=O)N([C@H]2C3CC4CC2C[C@@](O)(C4)C3)N1c1ccc2ccccc2c1` [Example 248, cis-2-(5-hydroxyadamantan-2-yl)-4,4-dimethyl-1-(naphthalen-2-yl)-1,2-diazetidin-3-one], the IC50 is 3 to 30 µM in assay [1] and 0.028 µM in assay [2] (Table 1).
For the compound `CC1(C)C(=O)N(C2C3CC4CC(C3)CC2C4)N1C(=O)c1cccc2ccccc12` (stereo not shown) [Example 141, 4,4-dimethyl-1-(naphthalen-1-ylcarbonyl)-2-(adamantan-2-yl)-1,2-diazetidin-3-one], the results for the IC50 in assay [1] and in assay [2] (Table 1) were 14 µM and 0.071 µM, respectively.
As to `CC1(C)C(=O)N([C@H]2C3CC4CC2C[C@](C(N)=O)(C4)C3)N1c1cccc(Cl)c1Cl` [Example 277, trans-4-[2-(2,3-dichlorophenyl)-3,3-dimethyl-4-oxo-1,2-diazetidin-1-yl]adamantane-1-carboxamide], the concentration for half-maximal inhibition (IC50) in assay [2] (Table 1) was determined as 0.007 µM; in assay [3], 0.4 µM.
`CC1(C)C(=O)N(C2C3CC4CC(C3)CC2C4)N1C(=O)c1ccc(Br)cc1` (stereo not shown) [Example 106, 1-[(4-bromophenyl)carbonyl]-4,4-dimethyl-2-(adamantan-2-yl)-1,2-diazetidin-3-one]: the values for the IC50 in assay [2] (Table 2) and in assay [3] were 0.75 µM and 0.17 µM, respectively.
`CC1(C)C(=O)N([C@H]2C3CC4CC2C[C@](O)(C4)C3)N1Cc1ccccc1Cl` [Example 65, trans-1-(2-chlorobenzyl)-2-(5-hydroxyadamantan-2-yl)-4,4-dimethyl-1,2-diazetidin-3-one]: the values for the half-inhibitory concentration (IC50) in assay [2] (Table 2) and in assay [3] were 0.5 µM and 0.47 µM, respectively.
Turning to `CC1(C)C(=O)N(C2C3CC4CC(C3)CC2C4)N1Cc1ccc(F)cc1` (stereo not shown) [Example 15, 1-(4-fluorobenzyl)-4,4-dimethyl-2-(adamantan-2-yl)-1,2-diazetidin-3-one], the half-maximal inhibitory concentration (IC50) in assay [2] (Table 2) was 0.36 µM; in assay [3] it was 0.084 µM.
In the case of `COc1cccc(N2N(C3C4CC5CC(C4)CC3C5)C(=O)C2(C)C)c1` (stereo not shown) [Example 204, 1-(3-methoxyphenyl)-4,4-dimethyl-2-(adamantan-2-yl)-1,2-diazetidin-3-one], the IC50 in assay [2] (Table 1) was found to be 0.16 µM; in assay [3] it was 0.42 µM.
On to `CC1(C)C(=O)N(C2CC3CCC2C3)N1Cc1cc(Cl)ccc1Cl` (stereo not shown) [Example 80, 2-(bicyclo[2.2.1]heptan-2-yl)-1-(2,5-dichlorobenzyl)-4,4-dimethyl-1,2-diazetidin-3-one], for which the IC50 in assay [2] (Table 2) worked out at 0.13 µM; in assay [3], 0.39 µM.

The values above are taken from US8252781B2, “1,2-diazetidin-3-one derivatives and drugs containing same” (Kowa Company, Ltd., priority 2008, dated 2012).
